Experimental data from US4698352A, “4-oxo-1,4-dihydronicotinic acid derivatives, salts thereof, and antibacterial agents containing the same” (Toyama Chemical Co., Ltd., priority 1982, dated 1987).
Converted amounts (≈) assume the structure as drawn. Where two headings read alike, the source gives them in different places.

Tests used:
Test in all cases: Antibacterial activity (MIC), agar dilution
Format in all cases: cell-based
Pro. vulgaris GN76** = details: Proteus vulgaris, 20 h; Pro. vulgaris GN76, cephalospolinase-producing; 10^6 cells per ml; read-out: MIC
Text: (§1) The amount of bacteria inoculated was 10^4 cells per plate (10^6 cells per ml).
(§2) ** Cephalospolinase-producing bacteria

E. coli GN5482** = details: Escherichia coli, 20 h; E. coli GN5482, cephalospolinase-producing; 10^6 cells per ml; read-out: MIC
Text: as §1, §2

Ps. aeruginosa GN918** = details: Pseudomonas aeruginosa, Ps. aeruginosa GN918, cephalospolinase-producing, 10^6 cells per ml
Text: as §1, §2

Kl. pneumoniae Y-4* = details: Klebsiella pneumoniae, 20 h, Kl. pneumoniae Y-4, penicillinase-producing; 10^6 cells per ml; read-out: MIC
Text: as §1
(§3) * Penicillinase-producing bacteria

E. coli TK-3* = details: Escherichia coli, 20 h, E. coli TK-3, penicillinase-producing; 10^6 cells per ml; read-out: MIC
Text: as §1, §3

Ps. aeruginosa GN3379* = details: Pseudomonas aeruginosa, Ps. aeruginosa GN3379, penicillinase-producing, 10^6 cells per ml
Text: as §1, §3

St. aureus F-137* = details: Staphylococcus aureus, 20 h, St. aureus F-137, penicillinase-producing; 10^6 cells per ml; read-out: MIC
Text: as §1, §3

E. coli TK-111 = details: Escherichia coli, TK111, 20 h, E. coli TK-111; 10^6 cells per ml; 37° C., 20 hours; read-out: MIC
Text: as §1

E. coli NIHJ JC-2 = details: Escherichia coli, NIHJJC2, 20 h, E. coli NIHJ JC-2; 10^6 cells per ml; 37° C., 20 hours; read-out: MIC
Text: as §1

Pro. vulgaris GN3027 = details: Proteus vulgaris, GN3027, 20 h, Pro. vulgaris GN3027; 10^6 cells per ml; 37° C., 20 hours; read-out: MIC
Text: as §1

Ps. aeruginosa S-68 = details: Pseudomonas aeruginosa
Text: as §1

St. aureus FDA209P = details: Staphylococcus aureus, FDA209P, 20 h, St. aureus FDA209P; 10^6 cells per ml; 37° C., 20 hours; read-out: MIC
Text: as §1

Aci. antitratus A-6 = details: 20 h, Aci. antitratus A-6; 10^6 cells per ml; 37° C., 20 hours; read-out: MIC
Text: as §1

Pro. morganii T-216 = details: Morganella morganii, 37° C.
Text: as §1

Ps. aeruginosa IFO3445 = details: Pseudomonas aeruginosa
Text: as §1

Pro. mirabilis T-111 = details: Proteus mirabilis, 37° C.
Text: as §1

Kl. pneumoniae Y-41 = details: Klebsiella pneumoniae, Y41, 10^6 cells per ml, 37° C., 20 hours, read-out: MIC
Text: as §1

Ent. cloacae IID977 = details: Enterobacter cloacae, IID977, 20 h, Ent. cloacae IID977; 10^6 cells per ml; 37° C., 20 hours; read-out: MIC
Text: as §1

Kl. pneumoniae Y-50 = details: Klebsiella pneumoniae, Y50, 20 h, 10^6 cells per ml, 37° C., read-out: MIC
Text: as §1

[1] = S68, Ps. aeruginosa S-68, 10^6 cells per ml, 37° C., 20 hours, read-out: MIC
[2] = T216, 10^6 cells per ml, 20 hours, read-out: MIC
[3] = Ps. aeruginosa IFO3445, 10^6 cells per ml, 37° C., 20 hours, read-out: MIC
[4] = T111, 10^6 cells per ml, 20 hours, read-out: MIC

Structure (SMILES) | MIC (Pro. vulgaris GN76**) [µg/mL] | MIC (E. coli GN5482**) [µg/mL] | MIC (Ps. aeruginosa GN918**; 20 h, read-out: MIC) [µg/mL] | MIC (Kl. pneumoniae Y-4*) [µg/mL] | MIC (E. coli TK-3*) [µg/mL] | MIC (Ps. aeruginosa GN3379*; 20 h, read-out: MIC) [µg/mL] | MIC (St. aureus F-137*) [µg/mL] | MIC (E. coli TK-111) [µg/mL] | MIC (E. coli NIHJ JC-2) [µg/mL] | MIC (Pro. vulgaris GN3027) [µg/mL] | MIC (Ps. aeruginosa S-68; [1]) [µg/mL] | MIC (St. aureus FDA209P) [µg/mL] | MIC (Aci. antitratus A-6) [µg/mL] | MIC (Pro. morganii T-216; [2]) [µg/mL] | MIC (Ps. aeruginosa IFO3445; [3]) [µg/mL] | MIC (Kl. pneumoniae Y-41) [µg/mL] | MIC (Ent. cloacae IID977) [µg/mL] | MIC (Kl. pneumoniae Y-50) [µg/mL] | MIC (Pro. morganii T-216; T216, 20 h, 10^6 cells per ml) [µg/mL] | MIC (Pro. mirabilis T-111; T111, 20 h, 10^6 cells per ml) [µg/mL] | also measured
COc1ccc(-c2cc(=O)c(C(=O)O)cn2-c2ccc(O)cc2C)cc1 | 0.39 (≈ 1.11 µM) | ≤ 0.05 | 1.56 (≈ 4.44 µM) | 0.78 (≈ 2.22 µM) | 0.2 (≈ 0.569 µM) | 12.5 (≈ 35.6 µM) | 0.1 (≈ 0.285 µM) | 0.05 (≈ 0.142 µM) | 0.1 (≈ 0.285 µM) | ≤ 0.05 | 3.13 (≈ 8.91 µM) | 0.1 (≈ 0.285 µM) | 0.2 (≈ 0.569 µM) | 1.56 (≈ 4.44 µM) | 3.13 (≈ 8.91 µM) | 0.78 (≈ 2.22 µM) | 0.39 (≈ 1.11 µM) | 0.1 (≈ 0.285 µM) |  |  | MIC (Pro. mirabilis T-111; [4]): 1.56 µg/mL (≈ 4.44 µM)
CNc1ccc(-c2cc(=O)c(C(=O)O)cn2-c2ccc(O)cc2)cc1C | 0.78 (≈ 2.23 µM) | ≤ 0.05 | 0.78 (≈ 2.23 µM) | 1.56 (≈ 4.45 µM) | 0.39 (≈ 1.11 µM) | 6.25 (≈ 17.8 µM) | 0.39 (≈ 1.11 µM) | 0.1 (≈ 0.285 µM) | 0.39 (≈ 1.11 µM) | 0.39 (≈ 1.11 µM) | 3.13 (≈ 8.93 µM) | 0.39 (≈ 1.11 µM) | 0.78 (≈ 2.23 µM) |  | 3.13 (≈ 8.93 µM) | 1.56 (≈ 4.45 µM) | 0.78 (≈ 2.23 µM) | 0.39 (≈ 1.11 µM) | 1.56 (≈ 4.45 µM) |  | MIC (Pro. mirabilis T-111; [4]): 3.13 µg/mL (≈ 8.93 µM)
Cn1ccc2cc(-c3cc(=O)c(C(=O)O)cn3-c3ccc(F)cc3)ccc21 | 0.78 (≈ 2.15 µM) | ≤ 0.05 | 0.78 (≈ 2.15 µM) | 3.13 (≈ 8.64 µM) | 1.56 (≈ 4.31 µM) | 25 (≈ 69 µM) | 0.39 (≈ 1.08 µM) | 0.1 (≈ 0.276 µM) | 0.39 (≈ 1.08 µM) | 0.2 (≈ 0.552 µM) | 12.5 (≈ 34.5 µM) | 0.39 (≈ 1.08 µM) | 0.1 (≈ 0.276 µM) | 1.56 (≈ 4.31 µM) | 12.5 (≈ 34.5 µM) | 3.13 (≈ 8.64 µM) | 1.56 (≈ 4.31 µM) | 0.78 (≈ 2.15 µM) |  | 3.13 (≈ 8.64 µM) | 
Cc1cc(O)ccc1-n1cc(C(=O)O)c(=O)cc1-c1ccccc1 | 0.2 (≈ 0.622 µM) | ≤ 0.05 |  | 1.56 (≈ 4.85 µM) | 0.39 (≈ 1.21 µM) | 12.5 (≈ 38.9 µM) | 0.2 (≈ 0.622 µM) | 0.1 (≈ 0.311 µM) | 0.2 (≈ 0.622 µM) | ≤ 0.05 | 3.13 (≈ 9.74 µM) | 0.2 (≈ 0.622 µM) | 0.78 (≈ 2.43 µM) | 0.39 (≈ 1.21 µM) | 6.25 (≈ 19.5 µM) | 0.78 (≈ 2.43 µM) | 0.39 (≈ 1.21 µM) | 0.1 (≈ 0.311 µM) |  |  | MIC (Ps. aeruginosa GN918**; GN918, 20 h): 1.56 µg/mL (≈ 4.85 µM); MIC (Pro. mirabilis T-111; [4]): 0.78 µg/mL (≈ 2.43 µM)
Cc1cc(O)ccc1-n1cc(C(=O)O)c(=O)cc1-c1ccc2[nH]ccc2c1 | 0.78 (≈ 2.16 µM) | ≤ 0.05 | 3.13 (≈ 8.69 µM) | 1.56 (≈ 4.33 µM) | 0.39 (≈ 1.08 µM) | 25 (≈ 69.4 µM) | 0.1 (≈ 0.277 µM) | 0.1 (≈ 0.277 µM) | 0.39 (≈ 1.08 µM) | 0.2 (≈ 0.555 µM) | 6.25 (≈ 17.3 µM) | 0.1 (≈ 0.277 µM) | 3.13 (≈ 8.69 µM) |  | 6.25 (≈ 17.3 µM) | 0.78 (≈ 2.16 µM) | 0.78 (≈ 2.16 µM) | 0.2 (≈ 0.555 µM) | 1.56 (≈ 4.33 µM) | 1.56 (≈ 4.33 µM) | 
COc1ccc(-c2cc(=O)c(C(=O)O)cn2-c2ccc(O)cc2C)cc1F | 0.39 (≈ 1.06 µM) | ≤ 0.05 |  | 1.56 (≈ 4.22 µM) | 0.39 (≈ 1.06 µM) | 12.5 (≈ 33.8 µM) | 0.1 (≈ 0.271 µM) | ≤ 0.05 | 0.39 (≈ 1.06 µM) | 0.1 (≈ 0.271 µM) | 6.25 (≈ 16.9 µM) | 0.1 (≈ 0.271 µM) | 0.39 (≈ 1.06 µM) |  | 12.5 (≈ 33.8 µM) | 1.56 (≈ 4.22 µM) | 0.39 (≈ 1.06 µM) | 0.78 (≈ 2.11 µM) | 1.56 (≈ 4.22 µM) | 1.56 (≈ 4.22 µM) | MIC (Ps. aeruginosa GN918**; GN918, 20 h): 1.56 µg/mL (≈ 4.22 µM)
Cc1cc(O)ccc1-n1cc(C(=O)O)c(=O)cc1/C=C/c1ccccc1 | 0.39 (≈ 1.12 µM) | ≤ 0.05 | 1.56 (≈ 4.49 µM) | 3.13 (≈ 9.01 µM) | 0.39 (≈ 1.12 µM) | 6.25 (≈ 18 µM) | 0.2 (≈ 0.576 µM) | 0.2 (≈ 0.576 µM) | 0.39 (≈ 1.12 µM) | 0.1 (≈ 0.288 µM) |  | 0.1 (≈ 0.288 µM) | 0.1 (≈ 0.288 µM) | 1.56 (≈ 4.49 µM) | 25 (≈ 72 µM) | 3.13 (≈ 9.01 µM) | 1.56 (≈ 4.49 µM) | 0.39 (≈ 1.12 µM) |  | 3.13 (≈ 9.01 µM) | MIC (Ps. aeruginosa S-68; S68, 20 h): 3.13 µg/mL (≈ 9.01 µM)
O=C(O)c1cn(-c2ccc(O)cc2)c(-c2ccc(-n3cccc3)cc2)cc1=O | 0.78 (≈ 2.09 µM) | ≤ 0.05 |  | 1.56 (≈ 4.19 µM) | 0.39 (≈ 1.05 µM) | 3.13 (≈ 8.41 µM) | 0.1 (≈ 0.269 µM) | ≤ 0.05 | 0.1 (≈ 0.269 µM) | 0.2 (≈ 0.537 µM) | 3.13 (≈ 8.41 µM) | 0.1 (≈ 0.269 µM) | 0.1 (≈ 0.269 µM) |  | 3.13 (≈ 8.41 µM) | 1.56 (≈ 4.19 µM) | 0.78 (≈ 2.09 µM) | 0.39 (≈ 1.05 µM) | 1.56 (≈ 4.19 µM) | 1.56 (≈ 4.19 µM) | MIC (Ps. aeruginosa GN918**; GN918, 20 h): 1.56 µg/mL (≈ 4.19 µM)
O=C(O)c1cn(-c2ccc(O)cc2)c(-c2ccc(-c3ccccn3)s2)cc1=O | 0.78 (≈ 2 µM) | ≤ 0.05 | 1.56 (≈ 4 µM) | 3.13 (≈ 8.02 µM) | 0.78 (≈ 2 µM) |  | 0.2 (≈ 0.512 µM) | ≤ 0.05 | 0.39 (≈ 0.999 µM) | 0.1 (≈ 0.256 µM) |  | 0.2 (≈ 0.512 µM) | 0.78 (≈ 2 µM) | 1.56 (≈ 4 µM) |  | 3.13 (≈ 8.02 µM) | 1.56 (≈ 4 µM) | 0.78 (≈ 2 µM) |  | 3.13 (≈ 8.02 µM) | MIC (Ps. aeruginosa GN3379*; GN3379, 20 h): 3.13 µg/mL (≈ 8.02 µM); MIC (Ps. aeruginosa S-68; S68, 20 h): 3.13 µg/mL (≈ 8.02 µM); MIC (Ps. aeruginosa IFO3445; IFO3445, 20 h): 3.13 µg/mL (≈ 8.02 µM)
